Laboratory results from patent US9771430B2, “Method of treating a metabolic disorder induced by obesity in a subject in need thereof by administering MK2/3 inhibitors” (THE TRUSTEES OF COLUMBIA UNIVERSITY IN THE CITY OF NEW YORK, priority 2011, dated 2017).
Entries after “also recorded” stand apart in the source; their conditions may differ.

Columns and labels:
[1] = Fasting glucose in C57BL/6J mice treated with Xestospongin C; assay type: in vivo, mouse
Source text: FIGS. 49A-S. The role of IP3R in forskolin/glucagon-induced G6Pase/PEPCK in cultured hepatocytes and in fasting blood glucose in vivo. FIG. 49 A,B. FSK-Induced G6Pase and PEPCK is Calcium-Dependent. FIG. 49C-D. IP3R Activity is Required for Forskolin- and Glucagon-Induced G6Pase and PEPCK (FAO rat hepatocyte cell line). FIG. 49E-F. IP3R Activity is Required for Forskolin-Induced G6Pase and PEPCK (primary murine hepatocytes). FIG. 49G-H. IP3R1 Anti-Sense Oligonucleotide Suppresses Forskolin-Induced G6Pase and PEPCK (primary murine hepatocytes). FIG. 49I. Forskolin Activates IP3R Activity in FAO Hepatocytes (Inositol/ATP-Induced Calcium Release Assay). FIG. 49J. The PKA Inhibitor H89 Suppresses Forskolin-Induced IP3R Activation. FIG. 49K-L. IP3R Activity is Required for Forskolin-Induced PGC1a. FIG. 49M-N. Calcineurin Inhibitory Peptide Suppresses Forskolin-Induced G6Pase and PEPCK. FIG. 49O. IP3R Activity is Required for Forskolin-Induced Calcineurin Activation. FIG. 49P-Q. IP3R Activity is Required for Forskolin-Induced TORC2 Dephosphorylation and Nuclear Localization. FIG. 49R. TORC2 Transduction Partially Restores Forskolin-Induced G6Pase in IP3R-Inhibited Hepatocytes. FIG. 49S. Xestospongin C Treatment Reduces Fasting Glucose Levels in C57BL/6J Mice.

[2] = test system: CaMKII; experiment: CaMKII enzyme activity assay in primary mouse hepatocytes; assay type: cell-based; settings: HCs, 100 nM glucagon, various times
Method: FIGS. 1A-J. Glucagon and fasting activates hepatic CaMKII. FIG. 1A. CaMKII enzyme activity was assayed in triplicate wells of primary mouse HCs stimulated with 100 nM glucagon (Gluc) or vehicle control (Veh) for the indicated times (*P<0.05 and **P<0.01 vs. Veh; mean±S.E.M.). FIGS. 1B-1J. Extracts of HCs or liver were probed for phospho-CaMKII, total CaMKII, and β-actin by immunoblot assay. FIG. 1B. HCs were incubated with […] glucagon for the indicated times; FIG. 1C. Glucagon was added to HCs that were pre-treated for 1 h with vehicle control (Veh) or 5 μM BAPTA-AM; FIG. 1D. […]
CaMKII activity was assayed using a CaMKII assay kit from Promega according to the manufacturer's instructions. […] Next, [γ-32P]ATP and CaMKII biotinylated peptide substrate were added to the lysate and after incubation for 10 minutes at 30° C., the [32P]-phosphorylated substrate was separated from the residual [32P]ATP using SAM biotin capture membrane and quantitated using a scintillation counter.
CaMKII activity was assayed using a CaMKII assay kit from Promega according to the manufacturer's instructions. […] After incubation for 10 min at 30° C., the [^32P]-phosphorylated substrate was separated from the residual [^32P]ATP using SAM biotin-capture membrane and then quantitated using a scintillation counter. […]

Molecule	Fasting Glucose Levels [1]	CaMKII activity [2]
C1CCC[C@H]2CCCN3CC[C@@H](CCCCCC[C@@H]4CCCN5CC[C@@H](CC1)O[C@@H]45)O[C@@H]23 [Xestospongin C]	Reduces	–
glucagon: hormone used to stimulate hepatocytes and mice	–	increased steadily as a function of time; also recorded: increases as a function of time
